# According to PubChem BioAssay (NCI):
#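 Tested at 5 concentrations; 48 h exposure; 96-well plates; endpoints linearly interpolated, else capped at highest concentration. TGI is the concentration that stops growth completely.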
# Experiments:
# Experiment in all cases: NCI-60 cell line screen, 48 h
# K-562 leukemia = tested on: K-562 leukemia
# KM12 colon = tested on: KM12 colon
# SNB-75 CNS = tested on: SNB-75 CNS
# MDA-MB-231 breast = tested on: MDA-MB-231 breast
# BT-549 breast = tested on: BT-549 breast
# HOP-92 NSCLC = tested on: HOP-92 NSCLC
# MALME-3M melanoma = tested on: MALME-3M melanoma
# SK-OV-3 ovarian = tested on: SK-OV-3 ovarian
# M14 melanoma = tested on: M14 melanoma
# NCI/ADR-RES ovarian = tested on: NCI/ADR-RES ovarian
# SN12C renal = tested on: SN12C renal
# RXF 393 renal = tested on: RXF 393 renal
# NCI-H460 lung = tested on: NCI-H460 lung
# A549 NSCLC = tested on: A549 NSCLC
# HT29 colon = tested on: HT29 colon
# COLO 205 colon = tested on: COLO 205 colon
# SK-MEL-28 melanoma = tested on: SK-MEL-28 melanoma
# PC-3 prostate = tested on: PC-3 prostate
# IGROV1 ovarian = tested on: IGROV1 ovarian
# U251 CNS = tested on: U251 CNS
# NCI-H226 lung = tested on: NCI-H226 lung
# LOX IMVI melanoma = tested on: LOX IMVI melanoma
# OVCAR-4 ovarian = tested on: OVCAR-4 ovarian
# MDA-N = tested on: MDA-N
# HCT-15 colon = tested on: HCT-15 colon
# T-47D breast = tested on: T-47D breast
# EKVX NSCLC = tested on: EKVX NSCLC
# 786-0 renal = tested on: 786-0 renal
# SK-MEL-2 melanoma = tested on: SK-MEL-2 melanoma
# HCC-2998 colon = tested on: HCC-2998 colon
# HOP-62 NSCLC = tested on: HOP-62 NSCLC
# ACHN renal = tested on: ACHN renal
# MDA-MB-435 = tested on: MDA-MB-435
# A498 renal = tested on: A498 renal
# UACC-62 melanoma = tested on: UACC-62 melanoma
# NCI-H23 lung = tested on: NCI-H23 lung
# SW-620 colon = tested on: SW-620 colon
# RPMI-8226 leukemia = tested on: RPMI-8226 leukemia
# UACC-257 melanoma = tested on: UACC-257 melanoma
# SR leukemia = tested on: SR leukemia
# HCT-116 colon = tested on: HCT-116 colon
# OVCAR-5 ovarian = tested on: OVCAR-5 ovarian
# SNB-19 CNS = tested on: SNB-19 CNS
# TK-10 renal = tested on: TK-10 renal
# SF-268 CNS = tested on: SF-268 CNS
# SK-MEL-5 melanoma = tested on: SK-MEL-5 melanoma
# MCF7 breast = tested on: MCF7 breast
# DU-145 prostate = tested on: DU-145 prostate
# NCI-H522 lung = tested on: NCI-H522 lung
# HS 578T breast = tested on: HS 578T breast
# SF-295 CNS = tested on: SF-295 CNS
# CAKI-1 renal = tested on: CAKI-1 renal
# OVCAR-8 ovarian = tested on: OVCAR-8 ovarian
# SF-539 CNS = tested on: SF-539 CNS
# CCRF-CEM leukemia = tested on: CCRF-CEM leukemia
# OVCAR-3 ovarian = tested on: OVCAR-3 ovarian
# UO-31 renal = tested on: UO-31 renal
# HL-60(TB) leukemia = tested on: HL-60(TB) leukemia
# MOLT-4 leukemia = tested on: MOLT-4 leukemia
compound,measurement,setting,value
Cc1nc2ccccc2nc1N1CCCC1,TGI,K-562 leukemia,> 100 µM
same,TGI,KM12 colon,> 100 µM
same,TGI,SNB-75 CNS,> 100 µM
same,TGI,MDA-MB-231 breast,> 100 µM
same,TGI,BT-549 breast,> 100 µM
same,TGI,HOP-92 NSCLC,> 100 µM
same,TGI,MALME-3M melanoma,> 100 µM
same,TGI,SK-OV-3 ovarian,> 100 µM
same,TGI,M14 melanoma,> 100 µM
same,TGI,NCI/ADR-RES ovarian,> 100 µM
same,TGI,SN12C renal,> 100 µM
same,TGI,RXF 393 renal,> 100 µM
same,TGI,NCI-H460 lung,> 100 µM
same,TGI,A549 NSCLC,> 100 µM
same,TGI,HT29 colon,> 100 µM
same,TGI,COLO 205 colon,> 100 µM
same,TGI,SK-MEL-28 melanoma,> 100 µM
same,TGI,PC-3 prostate,> 100 µM
same,TGI,IGROV1 ovarian,> 100 µM
same,TGI,U251 CNS,> 100 µM
same,TGI,NCI-H226 lung,> 100 µM
same,TGI,LOX IMVI melanoma,> 100 µM
same,TGI,OVCAR-4 ovarian,> 100 µM
same,TGI,MDA-N,> 100 µM
same,TGI,HCT-15 colon,> 100 µM
same,TGI,T-47D breast,> 100 µM
same,TGI,EKVX NSCLC,> 100 µM
same,TGI,786-0 renal,> 100 µM
same,TGI,SK-MEL-2 melanoma,> 100 µM
same,TGI,HCC-2998 colon,> 100 µM
same,TGI,HOP-62 NSCLC,> 100 µM
same,TGI,ACHN renal,> 100 µM
same,TGI,MDA-MB-435,> 100 µM
same,TGI,A498 renal,> 100 µM
same,TGI,UACC-62 melanoma,> 100 µM
same,TGI,NCI-H23 lung,> 100 µM
same,TGI,SW-620 colon,> 100 µM
same,TGI,RPMI-8226 leukemia,> 100 µM
same,TGI,UACC-257 melanoma,> 100 µM
same,TGI,SR leukemia,> 100 µM
same,TGI,HCT-116 colon,> 100 µM
same,TGI,OVCAR-5 ovarian,> 100 µM
same,TGI,SNB-19 CNS,> 100 µM
same,TGI,TK-10 renal,> 100 µM
same,TGI,SF-268 CNS,> 100 µM
same,TGI,SK-MEL-5 melanoma,> 100 µM
same,TGI,MCF7 breast,> 100 µM
same,TGI,DU-145 prostate,> 100 µM
same,TGI,NCI-H522 lung,> 100 µM
same,TGI,HS 578T breast,> 100 µM
same,TGI,SF-295 CNS,> 100 µM
same,TGI,CAKI-1 renal,> 100 µM
same,TGI,OVCAR-8 ovarian,> 100 µM
C=C(C)[C@@H]1CC[C@@H]2C(=CC[C@]3(C)C([C@H](C)CC/C=C(/C)C(=O)O)CC[C@@]23C)[C@@]1(C)CCC(=O)O (stereo partly specified),TGI,K-562 leukemia,> 100 µM
same,TGI,KM12 colon,48.7 µM
same,TGI,SNB-75 CNS,> 100 µM
same,TGI,MDA-MB-231 breast,60.2 µM
same,TGI,BT-549 breast,51 µM
same,TGI,HOP-92 NSCLC,43 µM
same,TGI,SF-539 CNS,89 µM
same,TGI,MALME-3M melanoma,61 µM
same,TGI,SK-OV-3 ovarian,> 100 µM
same,TGI,M14 melanoma,> 100 µM
same,TGI,CCRF-CEM leukemia,53.7 µM
same,TGI,OVCAR-3 ovarian,44.6 µM
same,TGI,SN12C renal,> 100 µM
same,TGI,RXF 393 renal,35.1 µM
same,TGI,NCI-H460 lung,40.6 µM
same,TGI,A549 NSCLC,> 100 µM
same,TGI,HT29 colon,48.4 µM
same,TGI,COLO 205 colon,39.9 µM
same,TGI,SK-MEL-28 melanoma,98.9 µM
same,TGI,PC-3 prostate,65.9 µM
same,TGI,IGROV1 ovarian,88.8 µM
same,TGI,U251 CNS,70 µM
same,TGI,NCI-H226 lung,83.1 µM
same,TGI,LOX IMVI melanoma,37.8 µM
same,TGI,OVCAR-4 ovarian,> 100 µM
same,TGI,MDA-N,72.2 µM
same,TGI,HCT-15 colon,44.4 µM
same,TGI,T-47D breast,> 100 µM
same,TGI,EKVX NSCLC,> 100 µM
same,TGI,786-0 renal,43.9 µM
same,TGI,SK-MEL-2 melanoma,45.1 µM
same,TGI,HCC-2998 colon,35.1 µM
same,TGI,HOP-62 NSCLC,> 100 µM
same,TGI,ACHN renal,36.7 µM
same,TGI,MDA-MB-435,89.7 µM
same,TGI,A498 renal,74.4 µM
same,TGI,UO-31 renal,30.7 µM
same,TGI,UACC-62 melanoma,39.4 µM
same,TGI,NCI-H23 lung,57.2 µM
same,TGI,SW-620 colon,> 100 µM
same,TGI,RPMI-8226 leukemia,58.2 µM
same,TGI,UACC-257 melanoma,54.2 µM
same,TGI,SR leukemia,49.4 µM
same,TGI,HCT-116 colon,43.7 µM
same,TGI,OVCAR-5 ovarian,> 100 µM
same,TGI,SNB-19 CNS,> 100 µM
same,TGI,TK-10 renal,> 100 µM
same,TGI,SF-268 CNS,> 100 µM
same,TGI,SK-MEL-5 melanoma,41.2 µM
same,TGI,HL-60(TB) leukemia,72.5 µM
same,TGI,MCF7 breast,> 100 µM
same,TGI,DU-145 prostate,60.5 µM
same,TGI,NCI-H522 lung,91.6 µM
same,TGI,HS 578T breast,> 100 µM
same,TGI,SF-295 CNS,> 100 µM
same,TGI,CAKI-1 renal,68.4 µM
same,TGI,OVCAR-8 ovarian,> 100 µM
CO/C=C(/C(=O)OC)c1ccccc1[C@H]1C[C@@H]1c1ccccc1,TGI,K-562 leukemia,> 100 µM
same,TGI,KM12 colon,49 µM
same,TGI,MDA-MB-231 breast,> 100 µM
same,TGI,BT-549 breast,52.2 µM
same,TGI,HOP-92 NSCLC,92.4 µM
same,TGI,SF-539 CNS,42.7 µM
same,TGI,MALME-3M melanoma,41.3 µM
same,TGI,SK-OV-3 ovarian,51.2 µM
same,TGI,M14 melanoma,68.8 µM
same,TGI,CCRF-CEM leukemia,> 100 µM
same,TGI,NCI/ADR-RES ovarian,68.2 µM
same,TGI,OVCAR-3 ovarian,67.3 µM
same,TGI,SN12C renal,90.3 µM
same,TGI,RXF 393 renal,> 100 µM
same,TGI,NCI-H460 lung,88.6 µM
same,TGI,A549 NSCLC,83.8 µM
same,TGI,HT29 colon,56.5 µM
same,TGI,COLO 205 colon,27.6 µM
same,TGI,SK-MEL-28 melanoma,64.2 µM
same,TGI,PC-3 prostate,> 100 µM
same,TGI,IGROV1 ovarian,58.1 µM
same,TGI,U251 CNS,> 100 µM
same,TGI,NCI-H226 lung,74.4 µM
same,TGI,OVCAR-4 ovarian,62.3 µM
same,TGI,MDA-N,71.9 µM
same,TGI,HCT-15 colon,86.8 µM
same,TGI,T-47D breast,63.1 µM
same,TGI,EKVX NSCLC,54.6 µM
same,TGI,786-0 renal,> 100 µM
same,TGI,SK-MEL-2 melanoma,34.8 µM
same,TGI,HCC-2998 colon,76.2 µM
same,TGI,HOP-62 NSCLC,> 100 µM
same,TGI,ACHN renal,60.6 µM
same,TGI,MDA-MB-435,43.3 µM
same,TGI,A498 renal,87.2 µM
same,TGI,UO-31 renal,> 100 µM
same,TGI,UACC-62 melanoma,37.2 µM
same,TGI,NCI-H23 lung,> 100 µM
same,TGI,RPMI-8226 leukemia,38.1 µM
same,TGI,UACC-257 melanoma,41.3 µM
same,TGI,MOLT-4 leukemia,> 100 µM
same,TGI,SR leukemia,76.5 µM
same,TGI,HCT-116 colon,62.5 µM
same,TGI,OVCAR-5 ovarian,> 100 µM
same,TGI,SNB-19 CNS,> 100 µM
same,TGI,TK-10 renal,> 100 µM
same,TGI,SF-268 CNS,82.5 µM
same,TGI,SK-MEL-5 melanoma,20.8 µM
same,TGI,HL-60(TB) leukemia,63.3 µM
same,TGI,MCF7 breast,> 100 µM
same,TGI,DU-145 prostate,> 100 µM
same,TGI,NCI-H522 lung,32 µM
same,TGI,HS 578T breast,> 100 µM
same,TGI,SF-295 CNS,98.2 µM
same,TGI,CAKI-1 renal,52.6 µM
same,TGI,OVCAR-8 ovarian,> 100 µM
